Test results as given in ChEMBL document CHEMBL1667725, “Tuberatolides, potent FXR antagonists from the Korean marine tunicate Botryllus tuberatus” (J Nat Prod, 2011).
Activity calls are given as the source filed them. The calls are words filed in the database; no cut-off is given here.

The compounds below were run against T1, Estrogen receptor (Homo sapiens) (UniProt P03372) (assay: Effect on human Gal4-fused ERalpha at 10 uM by luciferase reporter gene assay).
T1 sequence (whole entry): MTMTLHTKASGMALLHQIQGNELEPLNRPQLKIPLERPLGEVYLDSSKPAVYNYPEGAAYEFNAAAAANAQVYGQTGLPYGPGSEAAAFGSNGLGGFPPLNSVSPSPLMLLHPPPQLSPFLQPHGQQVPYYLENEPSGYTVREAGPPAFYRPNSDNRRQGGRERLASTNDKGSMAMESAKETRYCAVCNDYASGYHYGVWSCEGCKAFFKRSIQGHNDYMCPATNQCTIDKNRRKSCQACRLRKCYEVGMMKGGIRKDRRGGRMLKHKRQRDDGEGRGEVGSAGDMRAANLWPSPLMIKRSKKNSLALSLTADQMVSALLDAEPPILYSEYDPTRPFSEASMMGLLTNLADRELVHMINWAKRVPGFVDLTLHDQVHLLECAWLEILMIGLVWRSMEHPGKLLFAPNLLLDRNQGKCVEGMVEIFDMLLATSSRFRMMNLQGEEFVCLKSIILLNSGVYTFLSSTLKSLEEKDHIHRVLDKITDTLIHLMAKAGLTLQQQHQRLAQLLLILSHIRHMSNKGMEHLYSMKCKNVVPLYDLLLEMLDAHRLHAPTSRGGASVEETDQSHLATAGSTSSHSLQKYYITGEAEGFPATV

SMILES	Activity
CC(=O)CC/C=C(\C)C[C@@H]1C=C(CCC=C(C)C)C(=O)O1 [TUBERATOLIDE A]	inactive
CC(C)=CCC/C(=C/CC/C(C)=C/CC[C@@]1(C)C=Cc2cc(O)cc(C)c2O1)C(=O)O [(S)-SARGACHROMENOL]	inactive
CC(C)=CCC/C(=C/CC/C(C)=C/CC[C@]1(C)C=Cc2cc(O)cc(C)c2O1)C(=O)O [(R)-SARGACHROMENOL]	inactive
CC(C)=CCCC1=C[C@@H](C/C(C)=C/CC/C(C)=C/CC2=CC(=O)C=C(C)C2=O)OC1=O [YEZOQUINOLIDE]	inactive
CC(C)=CCCC1=C[C@@H](C/C(C)=C/CC[C@@]2(C)C=Cc3cc(O)cc(C)c3O2)OC1=O [TUBERATOLIDE B]	inactive
CC(C)=CCCC1=C[C@@H](C/C(C)=C/CC[C@]2(C)C=Cc3cc(O)cc(C)c3O2)OC1=O [2'-EPI-TUBERATOLIDE B]	inactive
